Data taken from patent US7160913B2, “Methods and kit for treating Parkinson's disease” (Thomas Jefferson University, priority 2002, dated 2007).

Legend:
parkinsonian monkey [1] = assay: Severity of levodopa-induced choreiform dyskinesias in a parkinsonian monkey; type: in vivo
Experimental: A parkinsonian monkey was primed for choreiform dyskinesia following chronic administration of levodopa plus the peripheral dopa decarboxylase inhibitor benserazide. […] Severity of the dyskinesias was rated by observers blind to the treatment condition. Three independent repetitions of the study were performed.

parkinsonian monkeys [2] = assay: Peak-dose levodopa anti-parkinsonian efficacy in parkinsonian monkeys; type: in vivo, monkey; conditions: 8 mg/kg D-cycloserine with 40 mg/kg levodopa plus 15 mg benserazide; assessed 30 or 60 minutes after levodopa; two parkinsonian monkeys
Experimental: In two parkinsonian monkeys with an established therapeutic response to levodopa, peak-dose levodopa efficacy was assessed by raters blind to treatment condition. Eight mg/kg D-cycloserine was administered to the monkeys with 40 mg/kg levodopa plus 15 mg benserazide.

parkinsonian monkeys [3] = assay: Duration of levodopa anti-Parkinson effect ("on" time) in parkinsonian monkeys; type: in vivo, monkey; conditions: 8 mg/kg D-cycloserine with 40 mg/kg levodopa plus 15 mg benserazide, compared to levodopa plus benserazide alone; two parkinsonian monkeys; blinded raters
Experimental: Eight mg/kg D-cycloserine was administered to two parkinsonian monkeys with an established therapeutic response to levodopa, together with 40 mg/kg levodopa plus the 15 mg of the peripheral dopa decarboxylase inhibitor benserazide. Symptomatic benefit was assessed by raters blind to treatment condition.

parkinsonian monkey [4] = assay: Severity of levodopa-induced dystonias in a parkinsonian monkey; type: in vivo; conditions: 8 mg/kg D-cycloserine with 40 mg/kg levodopa plus 15 mg benserazide vs L-Dopa alone; at least over 120 minutes; three repetitions
Experimental: Under these conditions, 8 mg/kg D-cycloserine was administered to the monkeys with 40 mg/kg levodopa plus 15 mg benserazide. The severity of the dystonia was rated by observers blind to the treatment condition. […] Three independent repetitions of the study were performed.

Structure (SMILES)	choreiform dyskinesias caused by levodopa challenge (parkinsonian monkey [1]; 40 mg/kg challenge dose of levodopa, parkinsonian monkey primed by chronic levodopa plus benserazide)	effect on therapeutic (anti-parkinsonian) efficacy of levodopa, peak-dose (parkinsonian monkeys [2])	enhancement of levodopa "on" time, or duration of symptomatic relief by levodopa (parkinsonian monkeys [3]) [%]	severity of levodopa-induced choreiform dyskinesias (parkinsonian monkey [1]; 8 mg/kg D-cycloserine with 40 mg/kg levodopa plus 15 mg benserazide vs L-Dopa alone, at least over 120 minutes, monkey primed by chronic levodopa/benserazide, three repetitions)	severity of levodopa-induced dystonias (parkinsonian monkey [4])
N[C@@H](Cc1ccc(O)c(O)c1)C(=O)O [levodopa]	caused significant choreiform dyskinesias	–	–	–	–
N[C@@H]1CONC1=O [D-cycloserine]	–	did not interfere with or reduce the therapeutic efficacy of levodopa	41	significantly decreased the severity of these dyskinesias	significantly decreased the severity of the dystonias
